Laboratory results as given in ChEMBL document CHEMBL4330071 (Eur J Med Chem, 2019).

Tests used:
[1] = Half life in human liver microsomes at 1 uM after 5 to 60 mins in presence of NADPH by LC-MS/MS analysis; format: ADME, Microsome
[2] = Half life in rat liver microsomes at 1 uM after 5 to 60 mins in presence of NADPH by LC-MS/MS analysis; format: ADME, Microsome
[3] = Intrinsic clearance in human liver microsomes assessed per mg protein at 1 uM after 5 to 60 mins in presence of NADPH by LC-MS/MS analysis; format: ADME, Microsome; details: read-out: CLH
[4] = Intrinsic clearance in rat liver microsomes assessed per mg protein at 1 uM after 5 to 60 mins in presence of NADPH by LC-MS/MS analysis; format: ADME, Microsome; details: read-out: CLH
[5] = molecular target: T1, Receptor-type tyrosine-protein kinase FLT3 (Homo sapiens, UniProt P36888); experiment: Inhibition of human FLT3 using EAIYAAPFAKKK as substrate preincubated for 20 mins followed by [gamma-33P]-ATP addition and measured after 120 mins by Hotspot assay
T1 sequence (P36888 whole entry): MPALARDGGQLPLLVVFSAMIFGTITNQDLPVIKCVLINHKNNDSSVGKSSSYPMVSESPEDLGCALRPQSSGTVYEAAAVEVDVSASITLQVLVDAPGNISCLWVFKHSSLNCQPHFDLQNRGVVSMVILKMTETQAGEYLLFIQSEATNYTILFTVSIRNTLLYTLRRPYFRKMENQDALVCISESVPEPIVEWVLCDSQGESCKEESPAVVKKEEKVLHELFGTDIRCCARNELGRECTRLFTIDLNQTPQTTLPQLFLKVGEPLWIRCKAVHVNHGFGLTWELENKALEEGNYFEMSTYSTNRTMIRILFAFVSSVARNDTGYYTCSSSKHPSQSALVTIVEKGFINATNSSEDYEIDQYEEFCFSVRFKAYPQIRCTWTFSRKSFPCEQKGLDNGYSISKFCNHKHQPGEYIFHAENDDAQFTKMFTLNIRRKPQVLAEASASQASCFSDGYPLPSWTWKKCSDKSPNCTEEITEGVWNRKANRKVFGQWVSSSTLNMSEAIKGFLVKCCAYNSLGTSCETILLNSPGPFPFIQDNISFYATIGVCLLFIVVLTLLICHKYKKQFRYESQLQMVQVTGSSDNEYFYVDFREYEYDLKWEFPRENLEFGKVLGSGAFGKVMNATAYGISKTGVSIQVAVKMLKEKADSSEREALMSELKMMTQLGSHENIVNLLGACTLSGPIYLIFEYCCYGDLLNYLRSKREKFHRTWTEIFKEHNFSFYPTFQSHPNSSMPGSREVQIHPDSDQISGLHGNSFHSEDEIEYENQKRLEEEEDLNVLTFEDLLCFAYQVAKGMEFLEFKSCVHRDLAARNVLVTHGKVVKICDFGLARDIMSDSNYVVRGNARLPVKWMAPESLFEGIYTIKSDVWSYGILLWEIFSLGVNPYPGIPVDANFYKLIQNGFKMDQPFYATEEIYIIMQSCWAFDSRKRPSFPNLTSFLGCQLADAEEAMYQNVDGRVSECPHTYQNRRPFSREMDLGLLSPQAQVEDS

MV4-11 [6] = experiment: Cytotoxicity against human MV4-11 cells at 1 uM after 72 hrs by MTT assay; format: cell-based; details: mv4-11, 72 h
MV4-11 [7] = experiment: Induction of apoptosis in human MV4-11 cells assessed as early apoptotic cells at 1 uM after 24 hrs by Annexin V-FITC/propidium iodide staining based flow cytometric analysis (reference value: 3.39%); format: functional
MV4-11 [8] = experiment: Induction of apoptosis in human MV4-11 cells assessed as late apoptotic cells at 1 uM after 24 hrs by Annexin V-FITC/propidium iodide staining based flow cytometric analysis (reference value: 1.42%); format: functional
MV4-11 [9] = experiment: Induction of apoptosis in human MV4-11 cells assessed as necrotic cells at 1 uM after 24 hrs by Annexin V-FITC/propidium iodide staining based flow cytometric analysis (reference value: 0%); format: functional
MV4-11 [10] = experiment: Induction of apoptosis in human MV4-11 cells assessed as viable cells at 1 uM after 24 hrs by Annexin V-FITC/propidium iodide staining based flow cytometric analysis (reference value: 95.19%); format: functional; details: MV4-11, 24 h, read-out: Activity

Question: Which results are given for Cc1ncc2n1-c1ccc(Cl)cc1C(c1ccccc1F)=NC2 [MIDAZOLAM]?
Answer: half-life at 1 µM [1]: 2.2 min; half-life at 1 µM [2]: 11.2 min; microsomal CLint at 1 µM [3]: 625 µL/min/mg; microsomal CLint at 1 µM [4]: 124 µL/min/mg

Question: Which IC50 [5] does the source give for CN1CCN(c2ccc(Nc3[nH]nc4c3-c3ccccc3CO4)cc2)CC1 here?
Answer: The IC50 was 842 nM.

Question: Which IC50 [5] does the source give for CN1CCC(Nc2ccc(C(=O)Nc3n[nH]c4cc(Oc5ccccc5)ccc34)cc2)CC1 here?
Answer: The IC50 was 136 nM.

Question: Which IC50 [5] does the source give for CN1CCN(c2ccc(Nc3[nH]nc4c3-c3ccccc3CC4)cc2)CC1 here?
Answer: The IC50 was 610 nM.

Question: With COc1ccc(Oc2ccc3c(NC(=O)c4ccc(NC5CCN(C)CC5)cc4)n[nH]c3c2)cc1 as the compound, how does the IC50 [5] read?
Answer: The IC50 was 222 nM.

Question: Which Activity (MV4-11 [6]) does the source give for CNC(=O)c1cc(Oc2ccc(NC(=O)Nc3ccc(Cl)c(C(F)(F)F)c3)cc2)ccn1 [SORAFENIB] here?
Answer: Its Activity is “Non-Toxic”.

Question: What about the Activity (MV4-11 [7]) of the same compound?
Answer: The Activity was 32.25%.

Question: And the Activity (MV4-11 [8])?
Answer: The Activity was 27.58%.

Question: What about the Activity (MV4-11 [9]) of the same compound?
Answer: The Activity was 4.2%.

Question: And the viability at 1 µM (MV4-11 [10])?
Answer: Its viability at 1 µM is 36%.
